Test results: PMC8259857, “Anti-tubercular activity and molecular docking studies of indolizine derivatives targeting mycobacterial InhA enzyme” (Journal of Enzyme Inhibition and Medicinal Chemistry, 2021)
Values after ≈ are worked out from the molar mass of the structure shown.

Legend:
[1] = system: susceptible H37Rv MTB strain (ATCC 25177); experiment: Resazurin Microplate Assay (REMA), whole-cell anti-tubercular activity against H37Rv; type: cell-based, Mycobacterium tuberculosis; conditions: for MIC: Mycobacterium tuberculosis, read-out: MIC H37Rv; for MIC H37Rv: H37Rv ATCC 25177, NA: not active at the concentration range (0.2–64 μg/mL)

Row | SMILES | MIC [1] [µg/mL] | MIC H37Rv [1] | melting point [°C]
1 | CCOC(=O)c1cc(C(=O)c2ccc(Cl)cc2)n2ccccc12 [Compound 2b] | 8 (≈ 24.4 µM) | – | –
2 | CCOC(=O)c1cc(C(=O)c2ccc(Br)cc2)n2ccccc12 [Compound 2c] | 32 (≈ 86 µM) | – | –
3 | CCOC(=O)c1cc(C(=O)c2ccc([N+](=O)[O-])cc2)n2ccccc12 [Compound 2d] | 8 (≈ 23.6 µM) | – | –
4 | CCOC(=O)c1cc(C(=O)c2ccc(C)cc2)n2ccccc12 [Compound 2e] | – | completely abolished the activity | –
5 | CCOC(=O)c1cc(C(=O)c2ccc(C#N)cc2)n2ccccc12 [Compound 2f] | – | completely abolished the activity | –
6 | CCOC(=O)c1c(C)c(C(=O)c2ccc(F)cc2)n2ccccc12 [Compound 3a] | 4 (≈ 12.3 µM) | – | –
7 | CCOC(=O)c1c(C)c(C(=O)c2ccc(Cl)cc2)n2ccccc12 [Compound 3b] | 32 (≈ 93.6 µM) | – | –
8 | CCOC(=O)c1c(C)c(C(=O)c2ccc([N+](=O)[O-])cc2)n2ccccc12 [Compound 3d] | 8 (≈ 22.7 µM) | – | –
9 | CCOC(=O)c1c(C(=O)OCC)c2ccccn2c1C(=O)c1ccc(F)cc1 [Compound 4a, Diethyl-3-(4-fluorobenzoyl)indolizine-1,2-dicarboxylate] | 8 (≈ 20.9 µM) | – | 138 to 139
10 | CCOC(=O)c1c(C(=O)OCC)c2ccccn2c1C(=O)c1ccc(Cl)cc1 [Compound 4b, Diethyl-3-(4-chlorobenzoyl)indolizine-1,2-dicarboxylate] | 8 (≈ 20 µM) | – | 137 to 138
11 | CCOC(=O)c1c(C(=O)OCC)c2ccccn2c1C(=O)c1ccc([N+](=O)[O-])cc1 [Compound 4c, Diethyl-3-(4-nitrobenzoyl)indolizine-1,2-dicarboxylate] | 32 (≈ 78 µM) | – | 111 to 112
12 | NNC(=O)c1ccncc1 [Isoniazid, reference compound] | < 0.2 | – | –
13 | CO[C@H]1/C=C/O[C@@]2(C)Oc3c(C)c(O)c4c(O)c(c(/C=N/N5CCN(C)CC5)c(O)c4c3C2=O)NC(=O)/C(C)=C\C=C\[C@H](C)[C@H](O)[C@@H](C)[C@@H](O)[C@@H](C)[C@H](OC(C)=O)[C@@H]1C [Rifampicin, reference compound] | < 1 | – | –
